# ChEMBL document CHEMBL1147235, “Isolation and structure determination of lyngbyastatin 3, a lyngbyastatin 1 homologue from the marine cyanobacterium Lyngbya majuscula. Determination of the configuration of the 4-amino-2,2-dimethyl-3-oxopentanoic acid unit in majusculamide C, dolastatin 12, lyngbyastatin 1, and lyngbyastatin 3 …” (J Nat Prod, 2003)
# Activity calls are given as the source filed them. No cut-off for these calls is given here. *1 amine or outer side, *2 acyl side, *3 side chain or, on linkers, in order; H or OH if unused. Where a SMILES comes first, the peptide text is derived from it. [ ]: non-standard residue; d: D form. X2 = CCC[C@@H](N[*:1])[C@H](C)C(=O)O[C@H](C(=O)[*:2])[C@H](C)CC; X1 = C[C@H](N[*:1])C(=O)C(C)(C)C(=O)[*:2]; NMeY = CN[C@@H](Cc1ccc(O)cc1)C(=O)O; NMeL = CN[C@@H](CC(C)C)C(=O)O; NMeV = CN[C@H](C(=O)O)C(C)C; NMeA = CN[C@@H](C)C(=O)O
# Experiments:
# LoVo = assay: Cytotoxicity against human LoVo cells; assay type: functional, cell-based
# MC-38 = assay: Antitumor activity against mouse colon 38 cells implanted mouse; assay type: functional, cell-based
# Mus musculus = assay: Antitumor activity against mouse mammary adenocarcinoma 16/C cells implanted mouse; assay type: functional
# KB = assay: Cytotoxicity against human KB cells; assay type: functional, cell-based
smiles,measurement,setting,value
CCC[C@H]1NC(=O)[C@H](C)N(C)C(=O)C(C)(C)C(=O)[C@H](C)NC(=O)[C@H](Cc2ccc(OC)cc2)N(C)C(=O)[C@H](C(C)C)N(C)C(=O)CNC(=O)[C@H](CC(C)C)N(C)C(=O)CNC(=O)[C@H]([C@H](C)CC)OC(=O)[C@H]1C [lyngbyastatin 3] (cyclo(G[NMeL]G[NMeV][NMeY](Me)[X1][NMeA][X2])),IC50,LoVo,400 nM
same,Activity,MC-38,inactive
same,Activity,Mus musculus,inactive
same,IC50,KB,32 nM
